# Reference: patent publication US20240366770A1, “DEGRADATION OF BRUTON'S TYROSINE KINASE (BTK) BY CONJUGATION OF BTK INHIBITORS WITH E3 LIGASE LIGAND AND METHODS OF USE” (BeiGene Switzerland GmbH, priority 2021, published 2024)
# Where two headings read alike, the source gives them in different places.
# Tests used:
# HEK-293 cells = experiment: HEK-293 cytotoxicity detection (CellTiter-Glo); type: cell-based; settings: HEK-293 cells, 72 h incubation, CellTiter-Glo luminescence, IC50 of cell proliferation inhibition, read-out: HEK293
# Method in brief: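 Four-parameter logistic fitting of percent inhibition versus concentration gives IC50. Luminescent ATP read-out (CellTiter-Glo) after 72 h compound treatment of HEK-293 cells, 8 doses in 4-fold steps from a 5 mM 500× DMSO stock, final DMSO 0.2%.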
# BTK = molecular target: T1, BTK (Homo sapiens, UniProt Q06187); experiment: BTK degradation in TMD-8 cells (HTRF assay); type: cell-based; settings: 6 h treatment, IC50 (DC50) of BTK degradation
# T1 construct: High control=Cell group with added DMSO and without compound, indicating microplate readings without BTK degradation; endogenous in cells; host or cells: TMD-8
# Method in brief: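 BTK remaining after compound treatment was measured by HTRF (337 nm excitation, 665/620 nm emission) in lysates of TMD-8 cells. Cells were exposed for 6 h to eight 6-fold-spaced concentrations in 0.2% DMSO. DC50 values were obtained from a Hill-equation fit (top, bottom, slope) of % inhibition.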
# T1 sequence (Q06187 whole entry): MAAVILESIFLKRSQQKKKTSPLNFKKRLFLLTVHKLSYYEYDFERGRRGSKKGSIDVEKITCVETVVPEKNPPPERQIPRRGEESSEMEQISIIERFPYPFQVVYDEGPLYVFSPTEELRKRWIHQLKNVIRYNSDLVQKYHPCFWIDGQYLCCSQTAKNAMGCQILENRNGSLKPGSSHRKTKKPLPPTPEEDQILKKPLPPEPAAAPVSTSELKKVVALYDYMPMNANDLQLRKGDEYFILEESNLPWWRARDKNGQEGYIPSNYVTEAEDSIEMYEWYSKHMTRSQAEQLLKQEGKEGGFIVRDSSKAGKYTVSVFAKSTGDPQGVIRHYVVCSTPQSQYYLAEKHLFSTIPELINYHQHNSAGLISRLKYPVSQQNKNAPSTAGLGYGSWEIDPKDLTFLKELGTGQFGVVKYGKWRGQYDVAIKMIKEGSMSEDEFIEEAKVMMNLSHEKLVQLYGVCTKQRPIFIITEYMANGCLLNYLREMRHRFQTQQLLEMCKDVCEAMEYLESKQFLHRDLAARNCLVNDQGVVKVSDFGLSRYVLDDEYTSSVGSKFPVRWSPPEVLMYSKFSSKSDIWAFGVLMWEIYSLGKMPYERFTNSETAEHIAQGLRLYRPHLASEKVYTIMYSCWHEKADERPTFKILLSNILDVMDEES
SMILES,IC50 (HEK-293 cells; Homo sapiens),DC50 (BTK),IC50 (HEK-293 cells)
"Cc1cc(-c2ncnc3[nH]c4cc(C5CCN(CC6CCN(c7ccc(N8CCC(=O)NC8=O)cc7)CC6)CC5)ncc4c23)ccc1[C@@H](C)NC(=O)c1nc(C(C)(C)C)no1 [Example 42, (R)-3-(tert-butyl)-N-(1-(4-(7-(1-((1-(4-(2,4-dioxotetrahydropyrimidin-1(2H)-yl)phenyl)piperidin-4-yl)methyl)piperidin-4-yl)-9H-pyrido[3′,4′:4,5]pyrrolo[2,3-d]pyrimidin-4-yl)-2-methylphenyl)ethyl)-1,2,4-oxadiazole-5-carboxamide]",6730 nM,1.29 nM,–
"Cc1cc(-c2ncnc3[nH]c4cc(N5CCC6(CC5)CCN(C5CC(c7ccc(C8CCC(=O)NC8=O)cc7)C5)C6)ccc4c23)ccc1[C@@H](C)NC(=O)c1nc(C(C)(C)C)no1 (stereo in doubt) [Example 101, 3-(tert-butyl)-N—((R)-1-(4-(7-(2-(3-(4-((R)-2,6-dioxopiperidin-3-yl)phenyl)cyclobutyl)-2,8-diazaspiro[4.5]decan-8-yl)-9H-pyrimido[4,5-b]indol-4-yl)-2-methylphenyl)ethyl)-1,2,4-oxadiazole-5-carboxamide]",956 nM,1.52 nM,–
"COc1cc2c(cc1N1CCN(Cc3ccc4c(c3)C(C)(C)C(=O)N4C3CCC(=O)NC3=O)CC1)[nH]c1ncnc(-c3ccc([C@@H](C)NC(=O)c4nc(C(C)(C)C)no4)c(C)c3)c12 (stereo partly drawn) [Example 73, 3-(tert-butyl)-N-((1R)-1-(4-(7-(4-((1-(2,6-dioxopiperidin-3-yl)-3,3-dimethyl-2-oxoindolin-5-yl)methyl)piperazin-1-yl)-6-methoxy-9H-pyrimido[4,5-b]indol-4-yl)-2-methylphenyl)ethyl)-1,2,4-oxadiazole-5-carboxamide]",> 10000 nM,1.27 nM,–
"COc1cc2c(cc1N1CCN([C@H]3C[C@@H](c4ccc(O[C@H]5CCC(=O)NC5=O)cc4)C3)CC1)[nH]c1ncnc(-c3ccc([C@@H](C)NC(=O)c4nc(C(C)(C)C)no4)c(C)c3)c12 [Example 128, 3-(tert-butyl)-N—((R)-1-(4-(7-(4-((1R,3s)-3-(4-(((S)-2,6-dioxopiperidin-3-yl)oxy)phenyl)cyclobutyl)piperazin-1-yl)-6-methoxy-9H-pyrimido[4,5-b]indol-4-yl)-2-methylphenyl)ethyl)-1,2,4-oxadiazole-5-carboxamide]",–,2.12 nM,> 10000 nM
"COc1cc2c(cc1N1CCN(C3CC(c4ccc([C@@H]5CCC(=O)NC5=O)cc4)C3)CC1)[nH]c1ncnc(-c3ccc([C@@H](C)NC(=O)c4nc(C(C)(C)C)no4)c(C)c3)c12 (stereo partly drawn) [Example 49, 3-(tert-butyl)-N—((R)-1-(4-(7-(4-(3-(4-((S)-2,6-dioxopiperidin-3-yl)phenyl)cyclobutyl)piperazin-1-yl)-6-methoxy-9H-pyrimido[4,5-b]indol-4-yl)-2-methylphenyl)ethyl)-1,2,4-oxadiazole-5-carboxamide]",> 10000 nM,1.08 nM,–
"Cc1cc(-c2ncnc3[nH]c4cc(N5CCC6(CC5)CCN([C@H]5C[C@H](c7ccc([C@H]8CCC(=O)NC8=O)cc7)C5)CC6)ccc4c23)ccc1[C@@H](C)NC(=O)c1nc(C(C)(C)C)no1 [Example 112, 3-(tert-butyl)-N—((R)-1-(4-(7-(9-((1R,3r)-3-(4-((R)-2,6-dioxopiperidin-3-yl)phenyl)cyclobutyl)-3,9-diazaspiro[5.5]undecan-3-yl)-9H-pyrimido[4,5-b]indol-4-yl)-2-methylphenyl)ethyl)-1,2,4-oxadiazole-5-carboxamide]",1890 nM,2.47 nM,–
"Cc1cc(-c2ncnc3[nH]c4c(c23)CCC(N2CCN(C3CC(c5ccc([C@H]6CCC(=O)NC6=O)cc5)C3)CC2)C4)ccc1[C@@H](C)NC(=O)c1nc(C(C)(C)C)no1 (stereo partly drawn) [Example 133, 3-(tert-butyl)-N-((1R)-1-(4-(7-(4-(3-(4-((R)-2,6-dioxopiperidin-3-yl)phenyl)cyclobutyl)piperazin-1-yl)-6,7,8,9-tetrahydro-5H-pyrimido[4,5-b]indol-4-yl)-2-methylphenyl)ethyl)-1,2,4-oxadiazole-5-carboxamide]",> 10000 nM,> 2000 nM,–
"COc1cc2c(cc1N1CCN(C3CC(c4ccc([C@H]5CCC(=O)NC5=O)cc4)C3)CC1)[nH]c1ncnc(-c3ccc([C@@H](C)NC(=O)c4nc(C5(C)CC5)no4)c(C)c3F)c12 (stereo partly drawn) [Example 72, N—((R)-1-(4-(7-(4-(3-(4-((R)-2,6-dioxopiperidin-3-yl)phenyl)cyclobutyl)piperazin-1-yl)-6-methoxy-9H-pyrimido[4,5-b]indol-4-yl)-3-fluoro-2-methylphenyl)ethyl)-3-(1-methylcyclopropyl)-1,2,4-oxadiazole-5-carboxamide]",> 10000 nM,15.9 nM,–
"COc1cc2c(cc1N1CCN(CC3CCN(c4ccc(N5CCC(=O)NC5=O)cc4)CC3)CC1)[nH]c1ncnc(-c3cc(C)c([C@@H](C)NC(=O)c4nc(C5(C)CC5)no4)cc3F)c12 [Example 93, (R)—N-(1-(4-(7-(4-((1-(4-(2,4-dioxotetrahydropyrimidin-1(2H)-yl)phenyl)piperidin-4-yl)methyl)piperazin-1-yl)-6-methoxy-9H-pyrimido[4,5-b]indol-4-yl)-5-fluoro-2-methylphenyl)ethyl)-3-(1-methylcyclopropyl)-1,2,4-oxadiazole-5-carboxamide]",> 10000 nM,2.51 nM,–
"Cc1c([C@@H](C)NC(=O)c2noc(C(C)(C)C)n2)ccc(-c2ncnc3[nH]c4cc(N5CCN(Cc6ccc(SC7CCC(=O)NC7=O)cc6)CC5)ccc4c23)c1F (stereo partly drawn) [Example 88, 5-(tert-butyl)-N-((1R)-1-(4-(7-(4-(4-((2,6-dioxopiperidin-3-yl)thio)benzyl)piperazin-1-yl)-9H-pyrimido[4,5-b]indol-4-yl)-3-fluoro-2-methylphenyl)ethyl)-1,2,4-oxadiazole-3-carboxamide]",> 10000 nM,> 2000 nM,–
"COc1cc2c(cc1N1CCN(CC3CCN(c4ccc(N5CCC(=O)NC5=O)cc4)CC3)CC1)[nH]c1ncnc(-c3cc(C)c([C@@H](C)NC(=O)c4nc(C(C)(C)C)no4)cc3F)c12 [Example 62, (R)-3-(tert-butyl)-N-(1-(4-(7-(4-((1-(4-(2,4-dioxotetrahydropyrimidin-1(2H)-yl)phenyl)piperidin-4-yl)methyl)piperazin-1-yl)-6-methoxy-9H-pyrimido[4,5-b]indol-4-yl)-5-fluoro-2-methylphenyl)ethyl)-1,2,4-oxadiazole-5-carboxamide]",> 10000 nM,0.414 nM,–
"Cc1cc(-c2ncnc3[nH]c4cc(CN5CCN(CC6CCN(c7ccc(N8CCC(=O)NC8=O)cc7)CC6)CC5)ccc4c23)ccc1[C@@H](C)NC(=O)c1nc(C(C)(C)C)no1 [Example 104, (R)-3-(tert-butyl)-N-(1-(4-(7-((4-((1-(4-(2,4-dioxotetrahydropyrimidin-1(2H)-yl)phenyl)piperidin-4-yl)methyl)piperazin-1-yl)methyl)-9H-pyrimido[4,5-b]indol-4-yl)-2-methylphenyl)ethyl)-1,2,4-oxadiazole-5-carboxamide]",> 10000 nM,1.16 nM,–
"Cc1cc(-c2ncnc3[nH]c4cc(N5CCN(CCc6cccc7c6C6(CC6)C(=O)N7C6CCC(=O)NC6=O)CC5)ccc4c23)ccc1[C@@H](C)NC(=O)c1nc(C2(C)CC2)no1 (stereo partly drawn) [Example 124, N-((1R)-1-(4-(7-(4-(2-(1′-(2,6-dioxopiperidin-3-yl)-2′-oxospiro[cyclopropane-1,3′-indolin]-4′-yl)ethyl)piperazin-1-yl)-9H-pyrimido[4,5-b]indol-4-yl)-2-methylphenyl)ethyl)-3-(1-methylcyclopropyl)-1,2,4-oxadiazole-5-carboxamide]",> 10000 nM,0.838 nM,–
"Cc1cc(-c2ncnc3[nH]c4cc(N5CCN(C6CC(c7ccc([C@@H]8CCC(=O)NC8=O)cc7)C6)CC5)ccc4c23)c(F)cc1[C@@H](C)NC(=O)c1nc(C2(C)CC2)no1 (stereo partly drawn) [Example 90, N—((R)-1-(4-(7-(4-(3-(4-((S)-2,6-dioxopiperidin-3-yl)phenyl)cyclobutyl)piperazin-1-yl)-9H-pyrimido[4,5-b]indol-4-yl)-5-fluoro-2-methylphenyl)ethyl)-3-(1-methylcyclopropyl)-1,2,4-oxadiazole-5-carboxamide]",> 10000 nM,0.86 nM,–
"COc1cc2c(cc1N1CCN(Cc3ccc(SC4CCC(=O)NC4=O)cc3)CC1)[nH]c1ncnc(-c3ccc([C@@H](C)NC(=O)c4nc(C(C)(C)C)no4)c(C)c3)c12 (stereo partly drawn) [Example 75, 3-(tert-butyl)-N-((1R)-1-(4-(7-(4-(4-((2,6-dioxopiperidin-3-yl)thio)benzyl)piperazin-1-yl)-6-methoxy-9H-pyrimido[4,5-b]indol-4-yl)-2-methylphenyl)ethyl)-1,2,4-oxadiazole-5-carboxamide]",> 10000 nM,> 2000 nM,–
"COc1cc2c(cc1N1CCN(CCc3ccc(C4(C)CCC(=O)NC4=O)cc3)CC1)[nH]c1ncnc(-c3ccc([C@@H](C)NC(=O)c4nc(C(C)(C)C)no4)c(C)c3)c12 (stereo partly drawn) [Example 92, 3-(tert-butyl)-N-((1R)-1-(4-(6-methoxy-7-(4-(4-(3-methyl-2,6-dioxopiperidin-3-yl)phenethyl)piperazin-1-yl)-9H-pyrimido[4,5-b]indol-4-yl)-2-methylphenyl)ethyl)-1,2,4-oxadiazole-5-carboxamide]",> 10000 nM,3.08 nM,–
